Holding throughout (format): cell-based
Experiment [1] relates to Aspergillus niger ATCC# 16404. Briefly: MIC / synergy index test in 96 well microtiter plates, mold. The settings on record: A. niger, ppm active. The method, then:
(§1) Ortho phenylphenol and silver are evaluated for synergy by determining the synergy index (S.I.) of the combination. Synergy index is calculated based on minimum inhibitory concentrations (MIC) of two antimicrobial compounds (A and B) alone and in combinations. The tests organisms are Gram negative bacteria (Pseudomonas aeruginosa), Gram positive bacteria (Staphylococcus aureus), yeast (Candida albicans) and mold (Aspergillus niger). Contact time for the bacteria is 24 and 48 hours, yeast is 48 and 72 hrs, and 3 and 7 days for mold. The test is carried out in 96 well microtiter plates.
(§2) SI is calculated as follows: Ca/CA+Cb/CB=Synergy Index (“SI”) Wherein: • CA=concentration of compound A in ppm, acting alone, which produced an end point (MIC of Compound A). • Ca=concentration of compound A in ppm, in the mixture, which produced an end point. • CB=concentration of compound B in ppm, acting alone, which produced an end point (MIC of Compound B). • Cb=concentration of compound B in ppm, in the mixture, which produced an end point. When the sum of Ca/CA and Cb/CB is greater than one, antagonism is indicated.

Experiment [2] deals with Candida albicans ATCC#10203. Briefly: MIC / synergy index test in 96 well microtiter plates, yeast. Conditions: C. albicans, ppm active; for MIC: Candida albicans, ATCC10203, alone, read-out: MIC of compound acting alone (CA / CB). On the procedure: as §1, §2
In experiment [3] the test system is Pseudomonas aeruginosa ATCC # 15442. Briefly: MIC / synergy index test in 96 well microtiter plates, Gram negative bacteria. Conditions: Ps. aeruginosa, ppm active; for MIC: Pseudomonas aeruginosa, ATCC15442, alone, read-out: MIC of compound acting alone (CA / CB). The method, then:
as §1, §2

For experiment [4], the system named is Staphylococcus aureus ATCC# 6538. Briefly: MIC / synergy index test in 96 well microtiter plates, Gram positive bacteria. The settings on record: S. aureus, ppm active; for MIC: Staphylococcus aureus, ATCC6538, alone, read-out: MIC of compound acting alone (CA / CB). On the procedure: as §1, §2

From US9756860B2, “Antimicrobial composition of ortho phenylphenol and silver” (Rohm and Haas Company, priority 2011, dated 2017) come the findings set out here.

Each structure is given as a SMILES string. Where two headings read alike, the source gives them in different places.

In the case of `O=[N+]([O-])[O-].[Ag+]` [AgNO3, Silver Nitrate], the “MIC of compound acting alone (CA / CB)” value in experiment [1] (contact time 3rd day) stood at 3 ppm; in experiment [1] (contact time 7th day), 10 ppm; in experiment [2] (contact time 48 hrs) it was 10 ppm; in experiment [2] (contact time 72 hrs) it was 10 ppm; in experiment [3] (contact time 24 hrs) it was 0.4 ppm; in experiment [3] (contact time 48 hrs), 1 ppm. Further, the “MIC of compound acting alone (CA / CB)” value in experiment [4] (contact time 24 hrs) amounted to 6 ppm; in experiment [4] (contact time 48 hrs), 8 ppm.
With `Oc1ccccc1-c1ccccc1` [OPP, ortho-phenylphenol], the “MIC of compound acting alone (CA / CB)” value in experiment [1] (contact time 3rd day) was determined as 75 ppm. Besides, the MIC was 75 µg/mL in experiment [1] (Aspergillus niger, ATCC16404, contact time 7th day, alone, read-out: MIC of compound acting alone (CA / CB)); 150 µg/mL in experiment [2] (contact time 48 hrs); 150 µg/mL in experiment [2] (contact time 72 hrs); 500 µg/mL in experiment [3] (contact time 24 hrs); 500 µg/mL in experiment [3] (contact time 48 hrs); 200 µg/mL in experiment [4] (contact time 24 hrs). In addition, the MIC in experiment [4] (contact time 48 hrs) was 200 µg/mL.
